One experiment deals with prostacyclin synthetase. Briefly: Arterial prostacyclin synthetase activity in insulin resistant Fatty Zucker Rats. Particulars: Fatty Zucker Rats treated for one week; untreated had only 1% of control Zucker rat activity. It is filed as in vivo. The source says: In order to examine whether this phenomenon was present in vivo, and thus had direct clinical relevance, we studied an accepted model of non-diabetic insulin resistance, the Fatty Zucker Rat. In these rats, we examined the activity of the endothelial cell surface enzyme prostacyclin synthetase, which produces a major anti-atherosclerotic product, prostacyclin. This enzyme is known to be directly inactivated by reactive oxygen species.

The test system of experiment [1] is GAPDH. Briefly: GAPDH activity in bovine aortic endothelial cells. The format is cell-based. Particulars: 30 mM glucose; adenoviral overexpression or 3 mM PJ34. On the procedure:
Cell culture conditions. Confluent bovine aortic endothelial cells (passage 4-10) were maintained in Eagle's MEM containing 0.4% FBS, essential and non-essential amino acid and antibiotics. […] Cells were infected with adenoviruses 48 hr prior to addition of 30 mM glucose. Oligonucleotide synthesis and treatment of cells. […] The S-antisense GAPDH had the following sequence: [NT]. Scrambled oligonucleotides ([NT]) were used as controls. Oligo solutions were prepared in 10 mM TRIS buffer, pH 7.4, containing 1 mM EDTA NaCl. […], and the solution was added to the cells for 2 hr. GAPDH activity. BAECs were grown to confluency, harvested by using trypsin-EDTA after washing twice with PBS, and resuspended in lysis buffer. […] Protein was measured by using the Bio-Rad Coomassie Plus Protein Assay System. GAPDH activity was determined as described previously (Garcia et al., 2001; Tau et al., 1994).

Another experiment concerns protein kinase C. Briefly: Protein kinase C activity (membrane fraction) in bovine aortic endothelial cells. It is filed as cell-based. Particulars: 30 mM glucose plus PJ34. As to the method:
(§1) Cell culture conditions. Confluent bovine aortic endothelial cells (passage 4-10) were maintained in Eagle's MEM containing 0.4% FBS, essential and non-essential amino acid and antibiotics. Cells were incubated for 3 days prior to determination of PKC activity, 48 hr prior to determination of hexosamine pathway activity, for 5 days prior to determination of advanced glycation end product formation, and for 6 hr prior to determination of NFκB activation. Cells were infected with adenoviruses 48 hr prior to addition of 30 mM glucose.
Protein kinase C activity. The assay was performed according to the manufacturer's instructions using the Protein Kinase C Assay System (Invitrogen, Carlsbad, Calif.).

The test system of the next experiment is hexosamine pathway. Briefly: Hexosamine pathway activity (UDP-GlcNAc concentration by HPLC). The format is cell-based, bovine. Particulars: 30 mM glucose plus PJ34. On the procedure:
as §1
Hexosamine pathway activity. Hexosamine pathway activity was assessed by measuring UDP-GlcNAc concentration. Cells were homogenized in three volumes (600 μl) of cold 0.6 M perchloric acid and kept at 0° C. for 10 min. The precipitated proteins were removed by centrifugation for 5 min at 13,500×g, and UDP-GlcNAc in the supernatant was determined by HPLC as previously described (13).

Experiment [2] relates to intracellular AGE formation. Briefly: Intracellular advanced glycation endproduct formation (quantitative immunoblotting). Particulars: 30 mM glucose plus PJ34. The format is cell-based, bovine. As to the method:
as §1
Advanced glycation endproducts. Equal amounts of cell extract protein were used for quantitative immunoblotting performed as described (14). Methylglyoxal-derived imidazole advanced glycation endproducts were detected using monoclonal antibody 1H7G5 (identified above as IG7) at a 1:10,000 dilution. Immunocomplexes were visualized using an ECF kit according to the manufacturer's instructions (Amersham International, Piscataway, N.J.) and quantified using a Molecular Dynamics FluorImager and its ImageQuant 4.0 analytical software.

In a further experiment the test system is NFκB. Briefly: NFκB activation (fluorescence in situ DNA-protein binding assay). To be noted: 30 mM glucose plus PJ34. The format is cell-based, bovine. On the procedure: as §1
NFκB activation. A fluorescence in situ DNA-protein binding assay was performed in cultured cells as described (Kurose et al., 1997), and fluorescence per cell was determined using IP Lab Spectrum (Scanalytics, Fairfax, Va.).

The test system of experiment [3] is GAPDH. Briefly: Poly(ADP-ribosyl)ation of GAPDH (immunoprecipitation and western blotting). It is filed as cell-based, bovine. Particulars: adenoviral overexpression or 3 mM PJ34. On the procedure: Immunoprecipitation. BAECs were plated in 100 mm cell culture plates and grown to confluency. Cells (2×10^7) were scraped from the plates, and 500 μg of protein was immunoprecipitated with 4 μg of the indicated antibody and 20 μl of Protein A Sepharose 4B (Amersham Phamacia Biotech) in binding buffer (final concentration […]).
Western blotting. Immunoprecipitated proteins electrophoresed on 10% PAGE gels were transferred onto nitrocellulose membranes. The immunoblots were developed with 1:1000 dilutions of anti-poly(ADPribose) IgG, and the signal was detected with the ECL System according to the manufacturer's instructions (Amersham Pharmacia Biotech). The images were scanned into a Molecular Dynamics FluorImager and analyzed using the ImageQuant 5.5 program.

Experiment [4] relates to bovine aortic endothelial cells. Briefly: FFA-induced superoxide / reactive oxygen species generation in endothelial cells. It is filed as cell-based. To be noted: FFA-treated endothelial cells. The source says: FIG. 8 is a graph of experimental data showing the effects of inhibitors of free fatty acid (FFA) oxidation (TDGA), UCP-1, and MnSOD on FFA-induced superoxide generation in bovine aortic endothelial cells.
Since mitochondrial β-oxidation of fatty acids yields the same electron donors as those obtained from glucose metabolism, that is, NADH and FADH2, we hypothesized that increased free fatty acid flux from adipose tissue to vascular endothelium would also increase mitochondrial production of superoxide.

The target in experiment [5] is T1, poly(ADP-ribose) polymerase (Bos taurus, UniProt P18493).
T1 construct: endogenous in cells; host or cells: bovine aortic endothelial cells
T1 sequence (P18493 whole entry): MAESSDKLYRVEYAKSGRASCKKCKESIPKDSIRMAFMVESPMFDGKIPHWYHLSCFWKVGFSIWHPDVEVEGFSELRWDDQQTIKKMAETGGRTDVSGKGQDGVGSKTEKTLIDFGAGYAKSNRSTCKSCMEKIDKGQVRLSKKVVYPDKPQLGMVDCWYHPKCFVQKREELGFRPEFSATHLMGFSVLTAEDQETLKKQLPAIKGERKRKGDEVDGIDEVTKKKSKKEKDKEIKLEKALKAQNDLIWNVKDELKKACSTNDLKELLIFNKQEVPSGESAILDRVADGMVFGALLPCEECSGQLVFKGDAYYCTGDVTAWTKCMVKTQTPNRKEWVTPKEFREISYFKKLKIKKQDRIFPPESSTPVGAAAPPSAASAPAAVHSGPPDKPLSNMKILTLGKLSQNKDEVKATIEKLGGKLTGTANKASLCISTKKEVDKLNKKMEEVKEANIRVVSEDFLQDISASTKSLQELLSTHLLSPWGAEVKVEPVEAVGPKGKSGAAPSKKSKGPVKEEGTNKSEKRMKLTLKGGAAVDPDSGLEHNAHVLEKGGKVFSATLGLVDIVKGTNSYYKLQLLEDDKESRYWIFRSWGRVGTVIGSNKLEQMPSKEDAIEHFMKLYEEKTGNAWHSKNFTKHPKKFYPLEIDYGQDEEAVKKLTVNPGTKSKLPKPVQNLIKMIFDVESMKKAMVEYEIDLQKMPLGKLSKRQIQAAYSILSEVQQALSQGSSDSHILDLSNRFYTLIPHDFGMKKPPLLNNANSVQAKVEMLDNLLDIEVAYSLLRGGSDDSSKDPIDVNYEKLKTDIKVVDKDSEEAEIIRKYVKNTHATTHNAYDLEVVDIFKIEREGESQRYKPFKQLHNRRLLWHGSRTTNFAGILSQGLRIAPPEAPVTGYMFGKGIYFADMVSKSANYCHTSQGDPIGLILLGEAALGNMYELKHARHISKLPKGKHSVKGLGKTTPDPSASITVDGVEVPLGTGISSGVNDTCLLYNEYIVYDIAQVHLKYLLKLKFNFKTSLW
Briefly: Poly(ADP-ribose) polymerase activity in aortic endothelial cells. It is filed as cell-based, bovine. To be noted: aortic endothelial cells incubated with oleic acid at levels found in non-diabetic insulin resistance subjects. As to the method: Poly(ADP-ribose) polymerase activity. Cells were incubated for 5 min at 37° C. in assay buffer containing 125 nmol NAD^+ spiked with 0.25 μCi of ^3H-NAD^+ (Amersham) as described (12). Enzyme activity was determined by measuring cpm incorporated into protein.

With `O=C(O)c1ccc(-c2c3nc(c(-c4ccc(C(=O)O)cc4)c4ccc([n-]4)c(-c4ccc(C(=O)O)cc4)c4nc(c(-c5ccc(C(=O)O)cc5)c5ccc2[n-]5)C=C4)C=C3)cc1.[Mn+3]` [MnTBAP, Manganese (III) tetrakis(4-benzoic acid) porphyrin], the “activity of prostacyclin synthetase in aortas” value in the experiment on prostacyclin synthetase is “restored to supranormal levels”.

Turning to `CN(C)CC(=O)Nc1ccc2[nH]c(=O)c3ccccc3c2c1` [PJ34, N-(oxo-5,6-dihdrophenanthridin-2-yl)-N,N-dimethylacetamide], the “hyperglycemia-induced inhibition of GAPDH activity” value with GAPDH [1] is “prevention”. Further, the “activation of PKC by 30 mM glucose” value with protein kinase C is listed as “completely prevented”. In addition, the “effect of 30 mM glucose on UDP-N-acetylglucosamine concentration (hexosamine pathway)” value with hexosamine pathway is on record as “completely prevented”. In addition, in experiment [2], the “effect of 30 mM glucose on intracellular AGE formation” value is recorded as “completely prevented”. The “effect of 30 mM glucose on NFκB activation” value in the experiment on NFκB is given as “completely prevented”. In the experiment on GAPDH [3], the “poly(ADP-ribosyl)ation of GAPDH induced by 30 mM glucose” value is reported as “completely prevented”.

With `CCCCCCCCCCCCCCC1(C(=O)O)CO1` (stereo not shown) [TDGA], in experiment [4], the “ability of FFAs to induce reactive oxygen species in endothelial cells” value is “inhibited”.

For `O=C(O)c1cccnc1` [nicotinic acid], the “activity of prostacyclin synthetase in aortas” value with prostacyclin synthetase was “restored to normal levels”.

Take `CCCCCCCC/C=C\CCCCCCCC(=O)O` [oleic acid]: the “increase of PARP activation” value in [5] stood at 1.5 fold.

The record behind these values is patent publication US20080161255A1, “Use of Parp Inhibitors for Prevention and Treatment of Diabetic and Insulin Resistance Complications” (priority 2003, published 2008).
